In US20130023575A1, “COMPOSITIONS AND METHODS FOR THE TREATMENT OF OCULAR SURFACE ALLERGIES” (priority 2011, published 2013):

Assay: bromfenac in solution in the flowable mucoadhesive polymer carrier
Type: physicochemical
Details: by weight of the composition
Excerpt: As used herein the term “retained in or carried with” or “retaining or carrying” embraces generally all ways that bromfenac can be associated with the flowable mucoadhesive polymer. For example, bromfenac can be in aqueous solution dispersed throughout the polymer. A bromfenac concentration of up to about 0.36% will be in solution mixed with or dispersed throughout the flowable mucoadhesive polymer carrier. Bromfenac can also be in suspension with the polymer depending on its concentration. For example, when bromfenac is used in an amount more than about 0.36% by weight of the composition, some of the bromfenac can be in suspension with the polymer carrier while an amount of up to about […] of bromfenac will still be in solution and mixed with the polymer carrier.

Nc1c(CC(=O)O)cccc1C(=O)c1ccc(Br)cc1 [bromfenac]
bromfenac concentration in solution mixed with or dispersed throughout the polymer carrier: up to 0.36%
